The subject of series [1] is mouse B16F1 melanoma cells. Nature of the series: Inhibition of MSH-stimulated melanin production (depigmenting activity). The series is classed as cell-based. Conditions: 1 mg/mL, 100 nM MSH, 24 hours; for % inhibition vs AK: relative to kojic acid. As for the experimental part: The bleaching activity of the compound obtained by cell culture of Centella asiatica has been determined by evaluating the inhibition of melanin production, stimulated by the addition of MSH (melanocyte stimulating hormone) in mouse B16F1 melanoma cells. The test has been prepared by seeding mouse B16F1 melanoma cells in DMEM culture medium + 10% FBS in 25 cm^2 flasks. On reaching 80% confluency, the culture medium has been replaced with conditioned medium (containing 100 nM MSH and the test compounds). The cells in the conditioned medium have been incubated for 24 hours at 37°C and 5% CO2. On termination of incubation, the cells have been washed twice with PBS and then detached using a Trypsin-EDTA solution. After washing twice with PBS, the detached cells have been resuspended in the same solution. A small aliquot has been removed from the suspension for the purpose of conducting the MTT cell viability test, while the remainder has been used to extract the cell melanin content. The melanin content has been determined by spectrophotometric measurements at 405 nm, and calculated by means of a calibration curve obtained using a melanin standard. The optical density value obtained has been normalised for the number of viable cells obtained by means of the MTT test. The percentage inhibition of melanin production has been calculated from the percentage ratio between the value obtained from the cells treated with the extracts, and the value obtained from the control cells, treated with MSH alone. The results obtained from testing the compound at a concentration of 1 mg/ml compared to kojic acid at the same concentration, are reported in table 8 below: TABLE 8

Series [2] relates to metalloproteinases (MMP). Nature of the series: Metalloproteinase inhibition, 3D model with type-1 collagen gel and BALB 3T3 fibroblasts (hydroxyproline content). Conditions: 48 hours; at higher concentrations collagen increases only through reduced cell number. The series is classed as cell-based. An excerpt:
Metalloproteinase inhibitory activity has been evaluated by preparation of an in vitro assay known as the "3D model" envisaging the use of a type-1 collagen gel and BALB 3T3 fibroblast cells. In this assay model, fibroblasts acquire the property of secreting metalloproteinases (MMP), such as collagenase, gelatinase, elastase etc. through modulation by cytokines or other inflammatory mediators (Lim H., Kim HP, Planta Medica, 2007, 12:1267-1274). Balb 3T3 cells (4*10^6 cells/ms) are inoculated in a culture medium (DMEM + 10% FBS) containing a type 1 collagen 3D gel supplemented with increasing concentrations of the test compound. After incubation for 48 hours at 37°C in 5% CO2, the collagen content is measured by means of an indirect method (hydroxyproline content); in parallel, the effect of treatment on cell viability, or on the growth inhibitory effect, is also assessed. The result is expressed as the %age of hydroxyproline present in the 3D gel, compared to the control, or untreated, culture (NB: the collagen content in the absence of cells is reported as positive control). From the results obtained, it is evident that treatment with 3,5 dicaffeoyl-4-malonylquinic acid is effective up to a concentration of 400 µg/ml. For higher concentrations, the collagen content increases purely as a result of the reduced number of cells.

In series [3] the test system is Malassezia furfur DSMZ4167. Nature of the series: Multiple dilution antimicrobial assay, CFU count in culture-broth. The series is classed as cell-based. The note with it: for T7d: sample at 7 days, 30°C. How it is done: (§1) With the aim of identifying any potential antimicrobial activity in the compound 3,5-dicaffeoyl-4-malonylquinic acid, microbiological assays, generally known as multiple dilution assays, have been prepared. The results obtained from said assays have shown the antimicrobial activity of the compound against the following strains: • Staphylococcus aureus ATCC6538 • Malassezia furfur DSMZ4167
(§2) The compound has been tested at concentrations of 5 mg/ml, 2 mg/ml and 1 mg/ml.
(§3) The microbial strains used for testing have been inoculated into culture-broth (in Tryptone soy broth medium, for Malassezia furfur the culture medium has been supplemented with 2 ml/100 ml of olive oil) containing the test compound at the concentrations described above. In parallel with these tests, culture broths containing the microbial strain alone have been prepared (controls). The culture-broths have been incubated at 30°C for a period of 7 days. Samples of the various culture-broths have been taken at 0 and 7 days, with the aim of counting the number of CFU/ml in relation to the various microbial strains, by plating the cultures on solid medium. A certain number of serial dilutions have been prepared for each sample in order to determine the microbial load of each culture-broth. Each dilution has been assayed in triplicate on solid medium. Then number of CFUs reported in the table is the mean of the counts performed on the triplicate assays. Table 4: the effect of 3,5-dicaffeoyl-4-malonylquinic acid on the growth of Staphylococcus aureus ATCC 6538

Series [4] deals with Staphylococcus aureus ATCC6538. The series is described as above. The series is classed as cell-based. How it is done:
as §1, §2, §3

Series [5] has as its system DNBS induced colitis model. As to the kind of experiment: DNBS induced colitis model in rats (anti-inflammatory activity). The series is classed as in vivo, Sprague-Dawley rats. The note with it: four days after DNBS. An excerpt: Evaluation of the anti- inflammatory activity of 3, 5-dicaffeoyl-4-malonylquinic acid has been determined on an in vivo induced colitis model. Colitis has been induced in rats using a colon inflammation model, stimulated by DNBS ([…] acid). After 4 days of induction of inflammation, the following parameters have been evaluated: determination of colon damage by means of morphological and histological analysis; determination of myeloperoxidase activity and determination of body weight. The animals used have been subdivided into four experimental groups (10 Sprague-Dawley rats weighing 200-250 g in each group) : • one control group, to which only carrier has been administered (CTR); • one group, to which DNBS plus carrier has been administered (DNBS); • one group, to which DNBS and 3,5-dicaffeoyl-4-malonylquinic acid has been administered: the compound has been administered orally at a concentration of 2 mg/kg for 4 consecutive days following the administration of DNBS; • one group, to which DNBS and 3,5-dicaffeoyl-4-malonylquinic acid has been administered: the compound has been administered orally at a concentration of 0.2 mg/kg for 4 consecutive days following the administration of DNBS.
Four days after the administration of DNBS, the following investigations have been conducted: • evaluation of colon damage by means of morphological and histological analysis (a score is assigned on the basis of the damage observed); • evaluation of myeloperoxidase activity and • determination of body weight.

Series [6] concerns type-2 HSV virus. Nature of the series: Anti-HSV2 antiviral activity in Vero cell model (XTT read-out). The series is classed as cell-based, type-2 Herpes simplex virus (HSV) strain 333. Conditions: at a concentration of 200 µg/ml; compared to positive control (infected, no test substance); MOI 0.1; 72 hours. How it is done: The antiviral activity of 3,5-dicaffeoyl-4-malonylquinic acid towards type-2 HSV virus has been assayed using a Vero cell model. The assay has been conducted using acyclovir as a comparator.
Vero cells have been seeded into 96 well plates at a concentration of 5x10^4 cells/well. After 4 hours incubation at 37°C in 5% CO2, the cells have been infected with strain 333 of the type-2 Herpes simplex virus (HSV) at a multiplicity of infection (MOI) of 0.1 infective viral particles/cell. Various concentrations of 3,5-dicaffeoyl-4-malonylquinic acid (CA1) have been added in triplicate to the cell monolayers. Some wells have been infected in the absence of test compound (POSITIVE CONTROL), others have not been infected and have not been treated with the test compound (NEGATIVE CONTROL), others still have been treated with various concentrations of acyclovir (ACYC), representing the comparator substance. The infected cells have then been incubated in medium plus 2% FBS for 72 hours. On completion of said incubation period, the medium has been removed from each well by aspiration. Following washing in PBS and aspiration, 50 µl of a solution consisting of […] and 1 mg/ml XTT has been added to each well. […] The optical density has been measured using an ELISA plate reader set at a wavelength of 450 nm and 630 nm.
A general note: Tetrazolium dyes change colour on reduction, which living cells bring about.

Series [7] can be described thus: UV absorption (sun-screen activity), spectrophotometry 250-400 nm. The series is classed as physicochemical. From the text: This example reports the test to determine the UV absorption of the molecule 3,5-dicaffeoyl-4-malonylquinic acid compared to a commercially available molecule widely used as a sun screen (PARSOL MCX).
The compounds have been examined in an aqueous solution of: • 0.2 M phosphate buffer pH 5.0 • 0.1 M HCl solution at pH 1.0.
The pH 5.0 buffer has been selected as the condition used most frequently in the preparation of sun screens. The pH 1.0 solution has been examined in order to also observe the stability of the compounds at extreme pH values.
The analyses have been conducted using a Shimadzu model UV 1601 spectrophotometer, analysing the spectrum from 250 nm to 400 nm in order to ascertain the absorption of UVA and UVB.
The results report the absorption values at maximum wavelength (λ Max) and at 330 nm, this being the wavelength most frequently used for quantitative measurements for the products in question.
The values are expressed in: • specific extinction, corresponding to the extinction at the given λ for a solution at a concentration of 1.0 µg/mL. • Epsilon = the molar absorption, calculated using the formula Epsilon = A/C*L [formula] where A is the absorption value in mAU, C is the concentration of the solution in moles and L is the path length of the solutions in cm (always 1 cm).

Series [8] is described as follows: Antioxidant activity by the DPPH method. The series is classed as biochemical. An excerpt:
The antioxidant activity of the compound 3,5-dicaffeoyl-4-malonylquinic acid compared to known molecules such as ascorbic acid and rutin, has been determined by means of the DPPH method, according to the instructions reported in J. Buenger et al.; International Journal of Cosmetic Science, 2006, 28: 135-146.
On the technique in general: Loss of DPPH colour is used to gauge radical scavenging.

[9] abbreviates: DNBS + 0.2 mg/kg orally for 4 consecutive days.
The mark [10] stands for this setting: DNBS + 2 mg/kg orally for 4 consecutive days.
Where [11] appears, read: pH 1.0, second line, printed beside 326 nm (330 nm line empty).
[12] abbreviates: pH 5.0 (0.2 M phosphate buffer), λ Max line.
[13] abbreviates: pH 5.0, second line, printed beside 325 nm (330 nm line empty).

The term % inhibition denotes the share of the control response that was lost under treatment. The term IC50 denotes the concentration needed to halve the response being measured. A lower IC50 goes with higher potency. As to `O=C(O)CC(=O)OC1C(OC(=O)/C=C/c2ccc(O)c(O)c2)CC(O)(C(=O)O)CC1OC(=O)/C=C/c1ccc(O)c(O)c1` (stereo not shown) [3,5-dicaffeoyl-4-malonylquinic acid], in series [1] (melanin production), the “% inhibition” value is 33.8%. Also, the “% inhibition vs AK” value in series [1] is reported as 48%. For the same compound, in series [2], the “concentration up to which treatment is effective (collagen content, hydroxyproline)” value is no more than 400 µg/mL. Also, the T7d in series [3] (2 mg/ml) is on record as less than 100 CFU/ml; in series [3] (5mg/ml), less than 100 CFU/ml; in series [4] (5mg/ml, sample at 7 days, 30°C), less than 100 CFU/ml. Further, the antimicrobial activity result in series [3] (at a concentration of 2 mg/ml) and in series [4] (at a concentration of 5 mg/ml) was “exerts antimicrobial activity” throughout. Besides, the Histological score is on record as 1.60 in series [5] (setting [9]) and 1.55 in series [5] (setting [10]). Moreover, the Myeloperoxidase activity worked out at 513.00 U/g fresh weight in series [5] (setting [9]) and 486.90 U/g fresh weight in series [5] (setting [10]). Besides, in series [6], the antiviral activity result is listed as “good antiviral activity”. For the same compound, the Epsilon in series [7] (pH 1.0 (0.1 M HCl), λ Max line) was 28.539; in series [7] (setting [11]), 28.138; in series [7] (setting [12]), 30.602; in series [7] (setting [13]), 29.972. Further, the “Spec. abs. (1 µg/ml)” value is given as 47.9 mAU in series [7] (pH 1.0 (0.1 M HCl), λ Max line); 47.2 mAU in series [7] (setting [11]); 51.3 mAU in series [7] (setting [12]); 50.3 mAU in series [7] (setting [13]). In series [8], it took 3.76 µM to reach half-maximal inhibition (IC50).
`O=C1O[C@H]([C@@H](O)CO)C(O)=C1O` [Ascorbic acid, reference compound] had an IC50 in series [8] of 1 µM.
By inhibition is commonly meant the percentage by which the read-out fell short of the control. Low values mean little suppression, high ones strong suppression. `O=c1cc(CO)occ1O` [Kojic acid, reference compound] displayed an inhibition at 1000 µg/mL in series [1] (Mus musculus, B16-F1, melanin production) of 70%. Further, the “% inhibition vs AK” value in series [1] is 100%.

For the origin of these results see patent publication EP2133323B1, “The production and use of 3,5-dicaffeoyl-4-malonylquinic acid” (I.R.B. Istituto Di Ricerche Biotecnologiche S.r.l., priority 2008, dated 2009).
